{"source": "ChEMBL document CHEMBL6087416", "about": "“Discovery of novel fused-heterocycle-bearing diarypyrimidine derivatives as HIV-1 potent NNRTIs targeting tolerant region I for enhanced antiviral activity and resistance profile” (Eur J Med Chem, 2025)", "key": {"[1]": {"tested_on": "Human immunodeficiency virus 1", "type": "functional, organism-based", "details": "Human immunodeficiency virus 1, RES056, MT4, 120 h"}, "[2]": {"assay": "Cytotoxicity against human MT4 cells assessed as reduction in cell viability measured after 5 days by MTT assay", "type": "toxicity, cell-based", "details": "time 5 day"}, "[3]": {"tested_on": "Human immunodeficiency virus 2", "assay": "Antiviral activity against HIV-2 ROD infected in human MT4 cells assessed as protection against virus-induced cytopathic effect incubated for 5 days by MTT assay", "type": "functional, organism-based", "details": "Human immunodeficiency virus 2, ROD, MT4, 120 h"}, "[4]": {"molecular_target": "Human immunodeficiency virus type 1 reverse transcriptase (Human immunodeficiency virus 1, UniProt Q72547)", "assay": "Inhibition of wild type HIV-1 Reverse transcriptase incubated for 1 hrs by ELISA analysis"}, "[5]": {"assay": "in vitro", "details": "human, MT4 cells", "description": "Selectivity index, ratio of CC50 for human MT4 cells to EC50 for wild type HIV-1 IIIB infected in human MT4 cells"}, "[6]": {"tested_on": "Human immunodeficiency virus 1", "assay": "microbe, parasite or virus in culture", "details": "Human immunodeficiency virus 1, IIIB, MT4, 120 h", "description": "Antiviral activity against wild type HIV-1 IIIB infected in human MT4 cells assessed as protection against virus-induced cytopathic effect incubated for 5 days by MTT assay"}}}
{"smiles": "COP(=O)(OC)N1CCc2ccc(Nc3nccc(Oc4c(C)cc(/C=C/C#N)cc4C)n3)cc2C1", "values": [{"measurement": "EC50", "setting": "[1]", "value": "> 7.01", "unit": "µM"}, {"measurement": "CC50 at 120 h", "setting": "[2]", "value": 7.01, "unit": "µM"}, {"measurement": "EC50", "setting": "[3]", "value": "> 7.01", "unit": "µM"}, {"measurement": "IC50", "setting": "[4]", "value": 630, "unit": "nM"}, {"measurement": "selectivity ratio", "setting": "[5]", "value": 58}, {"measurement": "EC50", "setting": "[6]", "value": 120, "unit": "nM"}]}
{"smiles": "Cc1cc(/C=C/C#N)cc(C)c1Oc1ccnc(Nc2ccc3c(c2)CCN(C(=O)CS(C)(=O)=O)C3)n1", "values": [{"measurement": "EC50", "setting": "[1]", "value": "> 5.95", "unit": "µM"}, {"measurement": "CC50 at 120 h", "setting": "[2]", "value": 5.95, "unit": "µM"}, {"measurement": "EC50", "setting": "[3]", "value": "> 5.95", "unit": "µM"}, {"measurement": "IC50", "setting": "[4]", "value": 120, "unit": "nM"}, {"measurement": "selectivity ratio", "setting": "[5]", "value": 642}, {"measurement": "EC50", "setting": "[6]", "value": 9, "unit": "nM"}]}
{"smiles": "Cc1cc(/C=C/C#N)cc(C)c1Oc1ccnc(Nc2ccc3c(c2)CCN(S(C)(=O)=O)C3)n1", "values": [{"measurement": "EC50", "setting": "[1]", "value": "> 6.63", "unit": "µM"}, {"measurement": "CC50 at 120 h", "setting": "[2]", "value": 6.63, "unit": "µM"}, {"measurement": "EC50", "setting": "[3]", "value": "> 6.63", "unit": "µM"}, {"measurement": "IC50", "setting": "[4]", "value": 100, "unit": "nM"}, {"measurement": "selectivity ratio", "setting": "[5]", "value": 970}, {"measurement": "EC50", "setting": "[6]", "value": 7, "unit": "nM"}]}
{"smiles": "Cc1cc(/C=C/C#N)cc(C)c1Oc1ccnc(Nc2ccc3c(c2)CN(CC#N)CC3)n1", "values": [{"measurement": "EC50", "setting": "[1]", "value": "> 5.85", "unit": "µM"}, {"measurement": "CC50 at 120 h", "setting": "[2]", "value": 5.85, "unit": "µM"}, {"measurement": "EC50", "setting": "[3]", "value": "> 5.85", "unit": "µM"}, {"measurement": "IC50", "setting": "[4]", "value": 250, "unit": "nM"}, {"measurement": "selectivity ratio", "setting": "[5]", "value": 159}, {"measurement": "EC50", "setting": "[6]", "value": 37, "unit": "nM"}]}
{"smiles": "Cc1nc2cc(Nc3nccc(Oc4c(C)cc(/C=C/C#N)cc4C)n3)ccc2s1", "values": [{"measurement": "EC50", "setting": "[1]", "value": "> 5.31", "unit": "µM"}, {"measurement": "CC50 at 120 h", "setting": "[2]", "value": 5.31, "unit": "µM"}, {"measurement": "EC50", "setting": "[3]", "value": "> 5.31", "unit": "µM"}, {"measurement": "IC50", "setting": "[4]", "value": 77, "unit": "nM"}, {"measurement": "selectivity ratio", "setting": "[5]", "value": 431}, {"measurement": "EC50", "setting": "[6]", "value": 12, "unit": "nM"}]}
{"smiles": "Cc1cc(/C=C/C#N)cc(C)c1Oc1ccnc(Nc2ccc3c(C)cc(=O)oc3c2)n1", "values": [{"measurement": "EC50", "setting": "[1]", "value": "> 47.1", "unit": "µM"}, {"measurement": "CC50 at 120 h", "setting": "[2]", "value": "> 47.1", "unit": "µM"}, {"measurement": "EC50", "setting": "[3]", "value": "> 47.1", "unit": "µM"}, {"measurement": "IC50", "setting": "[4]", "value": 78, "unit": "nM"}, {"measurement": "selectivity ratio", "setting": "[5]", "value": "> 2590"}, {"measurement": "EC50", "setting": "[6]", "value": 18, "unit": "nM"}]}
{"smiles": "Cc1cc(/C=C/C#N)cc(C)c1Oc1ccnc(Nc2ccc3c(c2)CN(C)C3=O)n1", "values": [{"measurement": "EC50", "setting": "[1]", "value": "> 40.4", "unit": "µM"}, {"measurement": "CC50 at 120 h", "setting": "[2]", "value": 40.4, "unit": "µM"}, {"measurement": "EC50", "setting": "[3]", "value": "> 40.4", "unit": "µM"}, {"measurement": "IC50", "setting": "[4]", "value": 630, "unit": "nM"}, {"measurement": "selectivity ratio", "setting": "[5]", "value": 1290}, {"measurement": "EC50", "setting": "[6]", "value": 31, "unit": "nM"}]}
{"smiles": "COP(=O)(OC)N1CCc2cc(Nc3nccc(Oc4c(C)cc(/C=C/C#N)cc4C)n3)ccc2C1", "values": [{"measurement": "EC50", "setting": "[1]", "value": "> 4.18", "unit": "µM"}, {"measurement": "CC50 at 120 h", "setting": "[2]", "value": 4.18, "unit": "µM"}, {"measurement": "EC50", "setting": "[3]", "value": "> 4.18", "unit": "µM"}, {"measurement": "IC50", "setting": "[4]", "value": 170, "unit": "nM"}, {"measurement": "selectivity ratio", "setting": "[5]", "value": 515}, {"measurement": "EC50", "setting": "[6]", "value": 8, "unit": "nM"}]}
{"smiles": "Cc1cc(/C=C/C#N)cc(C)c1Oc1ccnc(Nc2ccc3sccc3c2)n1", "values": [{"measurement": "EC50", "setting": "[1]", "value": "> 1.71", "unit": "µM"}, {"measurement": "CC50 at 120 h", "setting": "[2]", "value": 1.71, "unit": "µM"}, {"measurement": "EC50", "setting": "[3]", "value": "> 1.71", "unit": "µM"}, {"measurement": "IC50", "setting": "[4]", "value": 45, "unit": "nM"}, {"measurement": "selectivity ratio", "setting": "[5]", "value": 221}, {"measurement": "EC50", "setting": "[6]", "value": 8, "unit": "nM"}]}
{"smiles": "Cc1cc(/C=C/C#N)cc(C)c1Oc1ccnc(Nc2ccc3c(c2)C(=O)NC3)n1", "values": [{"measurement": "EC50", "setting": "[1]", "value": "> 103", "unit": "µM"}, {"measurement": "CC50 at 120 h", "setting": "[2]", "value": 103, "unit": "µM"}, {"measurement": "EC50", "setting": "[3]", "value": "> 103", "unit": "µM"}, {"measurement": "IC50", "setting": "[4]", "value": 58, "unit": "nM"}, {"measurement": "selectivity ratio", "setting": "[5]", "value": 16000}, {"measurement": "EC50", "setting": "[6]", "value": 6, "unit": "nM"}]}
{"smiles": "Cc1nc2cc(Nc3nccc(Oc4c(C)cc(/C=C/C#N)cc4C)n3)ccc2o1", "values": [{"measurement": "EC50", "setting": "[1]", "value": "> 1", "unit": "µM"}, {"measurement": "CC50 at 120 h", "setting": "[2]", "value": 1, "unit": "µM"}, {"measurement": "EC50", "setting": "[3]", "value": "> 1", "unit": "µM"}, {"measurement": "IC50", "setting": "[4]", "value": 53, "unit": "nM"}, {"measurement": "selectivity ratio", "setting": "[5]", "value": 129}, {"measurement": "EC50", "setting": "[6]", "value": 8, "unit": "nM"}]}
{"smiles": "Cc1cc(/C=C/C#N)cc(C)c1Oc1ccnc(Nc2ccc3c(c2)CN(S(C)(=O)=O)CC3)n1", "values": [{"measurement": "EC50", "setting": "[1]", "value": "> 4.95", "unit": "µM"}, {"measurement": "CC50 at 120 h", "setting": "[2]", "value": 4.95, "unit": "µM"}, {"measurement": "EC50", "setting": "[3]", "value": "> 4.95", "unit": "µM"}, {"measurement": "IC50", "setting": "[4]", "value": 78, "unit": "nM"}, {"measurement": "selectivity ratio", "setting": "[5]", "value": 791}, {"measurement": "EC50", "setting": "[6]", "value": 6, "unit": "nM"}]}
{"smiles": "Cc1cc(/C=C/C#N)cc(C)c1Oc1ccnc(Nc2ccc3nc(C#N)sc3c2)n1", "values": [{"measurement": "EC50", "setting": "[1]", "value": "> 81.6", "unit": "µM"}, {"measurement": "CC50 at 120 h", "setting": "[2]", "value": 81.6, "unit": "µM"}, {"measurement": "EC50", "setting": "[3]", "value": "> 81.6", "unit": "µM"}, {"measurement": "IC50", "setting": "[4]", "value": 1130, "unit": "nM"}, {"measurement": "selectivity ratio", "setting": "[5]", "value": 1330}, {"measurement": "EC50", "setting": "[6]", "value": 61, "unit": "nM"}]}
{"smiles": "Cc1cc(/C=C/C#N)cc(C)c1Oc1ccnc(Nc2ccc3c(C(F)(F)F)cc(=O)oc3c2)n1", "values": [{"measurement": "EC50", "setting": "[1]", "value": "> 185", "unit": "µM"}, {"measurement": "CC50 at 120 h", "setting": "[2]", "value": 185, "unit": "µM"}, {"measurement": "EC50", "setting": "[3]", "value": "> 185", "unit": "µM"}, {"measurement": "IC50", "setting": "[4]", "value": 230, "unit": "nM"}, {"measurement": "selectivity ratio", "setting": "[5]", "value": 2420}, {"measurement": "EC50", "setting": "[6]", "value": 76, "unit": "nM"}]}
{"smiles": "Cc1cc(/C=C/C#N)cc(C)c1Oc1ccnc(Nc2ccc3c(c2)OCCO3)n1", "values": [{"measurement": "EC50", "setting": "[1]", "value": "> 12.1", "unit": "µM"}, {"measurement": "CC50 at 120 h", "setting": "[2]", "value": 12.1, "unit": "µM"}, {"measurement": "EC50", "setting": "[3]", "value": "> 12.1", "unit": "µM"}, {"measurement": "IC50", "setting": "[4]", "value": 50, "unit": "nM"}, {"measurement": "selectivity ratio", "setting": "[5]", "value": 855}, {"measurement": "EC50", "setting": "[6]", "value": 14, "unit": "nM"}]}
{"smiles": "Cc1cc(/C=C/C#N)cc(C)c1Oc1ccnc(Nc2ccc3c(c2)CCN(CCS(C)(=O)=O)C3)n1", "values": [{"measurement": "EC50", "setting": "[1]", "value": "> 4.77", "unit": "µM"}, {"measurement": "CC50 at 120 h", "setting": "[2]", "value": 4.77, "unit": "µM"}, {"measurement": "EC50", "setting": "[3]", "value": "> 4.77", "unit": "µM"}, {"measurement": "IC50", "setting": "[4]", "value": 170, "unit": "nM"}, {"measurement": "selectivity ratio", "setting": "[5]", "value": 256}, {"measurement": "EC50", "setting": "[6]", "value": 19, "unit": "nM"}]}
